Data taken from article PMC5109658, “Antibacterial and cytotoxic cytochalasins from the endophytic fungus Phomopsis sp. harbored in Garcinia kola (Heckel) nut” (BMC Complementary and Alternative Medicine, 2016).
≈ marks a conversion by molar mass, not a printed value. Like-named read-outs stand apart in the source and are kept apart here.

Columns and labels:
[1] = system: studied microorganisms (six bacterial strains); assay: Antibacterial spectrum over the six tested strains (broth microdilution); format: cell-based; settings: out of 6 strains; concentrations up to 512 μg/mL
Description: (§1) A total of six bacterial strains were tested for their susceptibility to compounds and these strains were taken from our laboratory collection (kindly provided by Dr. T. Ramamurthy, NICED, Kolkata). Among the clinical strains of Vibrio cholerae used in this study, strains NB2 and SG24 and CO6 belonged to O1 and O139 serotypes, respectively. […]. The other strains used in this study were V. cholerae non-O1, non-O139 (strain PC2); […]. The American Type Culture Collection (ATCC) strain, Staphylococcus aureus ATCC 25923, was used for quality control. The bacterial strains were maintained on agar slant at 4 °C and subcultured on a fresh appropriate agar plates 24 h prior to any antibacterial test. The Mueller Hinton Agar (MHA) was used for the activation of bacteria. The Mueller Hinton Broth (MHB) and nutrient agar (Hi-Media) were used for the MIC and MBC determinations respectively.
(§2) MIC and MBC of compounds 1–3 were assessed using the broth microdilution method recommended by the National Committee for Clinical Laboratory Standards with slight modifications. Each test sample was dissolved in dimethylsulfoxide (DMSO) to give a stock solution. The 96-well round bottom sterile plates were prepared by dispensing 180 μL of the inoculated broth (1x10^6 CFU/mL) into each well. A 20 μL aliquot of the stock solution of compound was added. The concentrations of sample tested were 0.125, 0.25, 0.50, 1, 2, 4, 8, 16, 32, 64, 128, 256 and 512 μg/mL. […] Dilutions of tetracycline and ampicillin served as positive controls, while broth with 20 μL of DMSO was used as negative control. The ATCC strain Staphylococcus aureus ATCC 25923 was included for quality assurance purposes. Plates were covered and incubated for 24 h at 37 °C. After incubation, minimum inhibitory concentrations (MIC) were read visually; all wells were plated to nutrient agar (Hi-Media) and incubated. The minimal bactericidal concentration (MBC) was defined as a 99.9% reduction in CFU from the starting inoculums after 24 h incubation interval.

Hemolytic assay = format: cell-based; settings: male, 1% human red blood cell suspension, 512 μg/mL (highest concentration tested), 1% human red blood cells, PBS pH 7.4, 37 °C
Description: Whole blood (10 mL) from a healthy person was collected into a conical tube containing heparin as an anticoagulant. Erythrocytes were harvested by centrifugation at room temperature for 10 min at 1,000 × g and were washed three times in PBS solution. The top layer (plasma) and the next, milky layer (buffy coat with a layer of platelets on top of it) were then carefully aspirated and discarded. The cell pellet was resuspended in 10 mL of PBS solution and mixed by gentle aspiration with a Pasteur pipette. This cell suspension was used immediately.
For the normal human red blood cells, which were in suspension, the cytotoxicity was evaluated as previously described. Compounds 1–3, at concentrations ranging from 32 to 512 μg/mL, were incubated with an equal volume of 1% human red blood cells in phosphate buffered saline (10 mM PBS, pH 7.4) at 37 °C for 1 h. Tetracycline was tested simultaneously. Non-hemolytic and 100% hemolytic controls were the buffer alone and the buffer containing 1% Triton X-100, respectively. Cell lysis was monitored by measuring the release of hemoglobin at 595 nm with a spectrophotometer (Thermo Scientific, USA). Percent hemolysis was calculated as follows: [(A595 of sample treated with compound - A595 of sample treated with buffer)/(A595 of sample treated with Triton X-100 – A595 of sample treated with buffer)] x 100.

MTT cytotoxicity assay [2] = format: cell-based, Human; settings: human, HeLa cells; MTT, 24 h, mean ± SD; read-out: Cytotoxicty (LC50) HeLa cells
Description: (§3) HeLa (Human cervical cancer cell line, ATCC No. CCL-2) and Vero cells (African green monkey kidney cells, normal non-cancer cells, ATCC No. CCL-81), obtained from the American Type Culture Collection (ATCC) were used in this study. Cytotoxic activity was determined using the 3-(4,5-dimethylthiazol-2-yl)-2,5-diphenyltetrazolium bromide (MTT, Sigma, USA) assay reported by Mosmann for the HeLa and Vero cells. This cell viability assay is based on living cell‘s property to transform the MTT dye tetrazolium ring into a purple-colored formazan structure due to the action of mitochondrial and other dehydrogenases inside the cell. The color intensity yielded by the cell population is directly proportional to the number of viable cells, and one can quantify the absorbance measurements using mathematical parameters. Each test sample was dissolved in dimethylsulfoxide (DMSO) to give a stock solution. Compounds 1–3 were prepared from the stock solutions by serial dilution in RPMI 1640 to give a volume of 100 μL in each well of a microtiter plate (96-well). Each well was filled with 100 μL of cells at 2 × 10^5 cells/mL. The assay for each concentration of compound was performed in triplicates and the culture plates were kept at 37 °C with 5% (v/v) CO2 for 24 h. After removing the supernatant of each well and washing twice by PBS, 20 μL of MTT solution (5 mg/mL in PBS) and 100 μL of medium were then introduced. After 4 h of incubation, 100 μL of DMSO were added to each well to dissolve the formazan crystals and the absorbance values at 490 nm were measured with a microplate reader (Bio-RAD 680, USA). The relative cell viability (%) was expressed as a relative percentage of treated cells to the untreated control cells (TC/UC × 100). The rate of cell inhibition was calculated using the following formula: inhibition rate = [1- (ODtest/ODnegative control)] × 100%. The LC50 values were calculated as the concentration of test sample resulting in a 50% reduction of absorbance compared to untreated cells. Cells treated with 5-fluorouridine + RPMI 1640 served as positive control while cells left untreated + 1% (v/v) DMSO + RPMI 1640 were used as negative control.

HeLa cells = assay: MTT cytotoxicity assay; format: cell-based, Human; settings: SI = LC50 on Vero cells / LC50 on HeLa cells
Description: as §3

S. flexneri SDINT = assay: Broth microdilution MIC/MBC; format: cell-based, Shigella flexneri; settings: for MBC/MIC / MBC / MIC: S. flexneri SDINT; for Selectivity Index S. flexneri SDINT: SI = LC50 on Vero cells / MIC; for MBC: 99.9% reduction in CFU after 24 h; for MIC: 24 h at 37 °C
Description: as §1
(§4) Suspensions of bacteria were prepared in MHB from cells arrested during their logarithmic phase growth (4 h) on MHB at 37 °C. The turbidity of the microbial suspension was read spectrophotometrically at 600 nm and adjusted to an OD of 0.1 with MHB, which is equivalent to 1 × 10^8 CFU/mL. From this prepared solution, other dilutions were made with MHB to yield 1x10^6 CFU/mL.
as §2

MTT cytotoxicity assay [3] = format: cell-based; settings: African green monkey, Vero cells, normal non-cancer cells, mean ± SD, read-out: Cytotoxicty (LC50) Vero cells
Description: as §3

V. cholerae PC2 = assay: Broth microdilution MIC/MBC; format: cell-based, Vibrio cholerae; settings: for MBC: 99.9% reduction in CFU after 24 h; for MIC: 24 h at 37 °C
Description: as §1, §4, §2

V. cholerae CO6 = assay: Broth microdilution MIC/MBC; format: cell-based, Vibrio cholerae; settings: for Selectivity Index V. cholerae CO6: SI = LC50 on Vero cells / MIC; for MBC/MIC / MBC / MIC: V. cholerae CO6; for MBC / MIC: Vibrio cholerae; for MBC: 99.9% reduction in CFU after 24 h; for MIC: 24 h at 37 °C
Description: as §1, §4, §2

V. cholerae SG24 = assay: Broth microdilution MIC/MBC; format: cell-based, Vibrio cholerae; settings: for MBC / MIC: Vibrio cholerae; for MBC: 99.9% reduction in CFU after 24 h; for MIC: 24 h at 37 °C
Description: as §1, §4, §2

V. cholerae NB2 = assay: Broth microdilution MIC/MBC; format: cell-based, Vibrio cholerae; settings: for Selectivity Index V. cholerae NB2: SI = LC50 on Vero cells / MIC; for MBC/MIC / MBC / MIC: V. cholerae NB2; for MBC: 99.9% reduction in CFU after 24 h; for MIC: 24 h at 37 °C
Description: as §1, §4, §2

S. aureus ATCC 25923 = assay: Broth microdilution MIC/MBC; format: cell-based, Staphylococcus aureus; settings: for MBC/MIC / MBC / MIC: S. aureus ATCC 25923; for Selectivity Index S. aureus ATCC 25923: SI = LC50 on Vero cells / MIC; for MBC / MIC: Staphylococcus aureus, ATCC25923; for MBC: 99.9% reduction in CFU after 24 h; for MIC: 24 h at 37 °C
Description: as §1, §4, §2

[4] = Shigella flexneri, read-out: MIC
[5] = Vibrio cholerae, V. cholerae PC2
[6] = Vibrio cholerae, V. cholerae PC2, read-out: MIC

C=C1[C@@H](C)C2[C@H](Cc3ccccc3)NC(=O)[C@@]23C(/C=C/C[C@H](C)C[C@@](C)(O)/C=C/[C@H]3O)[C@@H]1O (stereo partly shown) [Compound 3, cytochalasin J]
share of the studied microorganisms on which inhibitory effects were noted [1]: 66.66%
hemolysis at 1 h, 512 μg/mL (Hemolytic assay): < 10%
CC50 at 24 h (MTT cytotoxicity assay [2]): 3.66 ± 0.33 µg/mL (≈ 8.1 µM)
Selectivity Index HeLa cells (HeLa cells): 20.18
MBC/MIC (S. flexneri SDINT): 1
Selectivity Index S. flexneri SDINT (S. flexneri SDINT): 0.57
MBC (S. flexneri SDINT; Shigella flexneri): 128 µg/mL (≈ 283 µM)
MIC (S. flexneri SDINT; [4]): 128 µg/mL (≈ 283 µM)
CC50 at 24 h (MTT cytotoxicity assay [3]): 73.9 ± 0.92 µg/mL (≈ 164 µM)
MBC (V. cholerae PC2; [5]): > 512 µg/mL
MIC (V. cholerae PC2; [6]): > 512 µg/mL
Selectivity Index V. cholerae CO6 (V. cholerae CO6): 0.14
MBC/MIC (V. cholerae CO6): 1
MBC (V. cholerae CO6): 512 µg/mL (≈ 1130 µM)
MIC (V. cholerae CO6): 512 µg/mL (≈ 1130 µM)
MBC (V. cholerae SG24): > 512 µg/mL
MIC (V. cholerae SG24): > 512 µg/mL
Selectivity Index V. cholerae NB2 (V. cholerae NB2): 0.14
MBC/MIC (V. cholerae NB2): 1
MBC (V. cholerae NB2; Vibrio cholerae): 512 µg/mL (≈ 1130 µM)
MIC (V. cholerae NB2; Vibrio cholerae, read-out: MIC): 512 µg/mL (≈ 1130 µM)
MBC/MIC (S. aureus ATCC 25923): 1
Selectivity Index S. aureus ATCC 25923 (S. aureus ATCC 25923): 0.14
MBC (S. aureus ATCC 25923): 512 µg/mL (≈ 1130 µM)
MIC (S. aureus ATCC 25923): 512 µg/mL (≈ 1130 µM)

CC1(C)S[C@@H]2[C@H](NC(=O)[C@H](N)c3ccccc3)C(=O)N2[C@H]1C(=O)O [Ampicillin, reference compound]
MIC (S. flexneri SDINT): >512 µg/mL
MBC (S. flexneri SDINT; Shigella flexneri): > 512 µg/mL
MIC (S. flexneri SDINT; [4]): > 512 µg/mL
MIC (V. cholerae PC2; V. cholerae PC2): >512 µg/mL
MBC (V. cholerae PC2; [5]): > 512 µg/mL
MIC (V. cholerae PC2; [6]): > 512 µg/mL
MBC/MIC (V. cholerae CO6): 1
MBC (V. cholerae CO6): 16 µg/mL (≈ 45.8 µM)
MIC (V. cholerae CO6): 16 µg/mL (≈ 45.8 µM)
MBC/MIC (V. cholerae SG24): 1
MBC (V. cholerae SG24): 16 µg/mL (≈ 45.8 µM)
MIC (V. cholerae SG24): 16 µg/mL (≈ 45.8 µM)
MIC (V. cholerae NB2): >512 µg/mL
MBC (V. cholerae NB2; Vibrio cholerae): > 512 µg/mL
MIC (V. cholerae NB2; Vibrio cholerae, read-out: MIC): > 512 µg/mL
MBC/MIC (S. aureus ATCC 25923): 1
MBC (S. aureus ATCC 25923): 16 µg/mL (≈ 45.8 µM)
MIC (S. aureus ATCC 25923): 16 µg/mL (≈ 45.8 µM)

C=C1[C@@H](C)C2[C@H](Cc3ccccc3)NC(=O)[C@@]23C(/C=C/C[C@H](C)C[C@@](C)(O)/C=C/[C@H]3OC(C)=O)[C@@H]1O (stereo partly shown) [Compound 2, cytochalasin H]
share of the studied microorganisms on which inhibitory effects were noted [1]: 83.33%
hemolysis at 1 h, 512 μg/mL (Hemolytic assay): 20.1%
CC50 at 24 h (MTT cytotoxicity assay [2]): 35.7 ± 1.31 µg/mL (≈ 72.3 µM)
Selectivity Index HeLa cells (HeLa cells): 3.61
MBC/MIC (S. flexneri SDINT): 1
Selectivity Index S. flexneri SDINT (S. flexneri SDINT): 1.00
MBC (S. flexneri SDINT; Shigella flexneri): 128 µg/mL (≈ 259 µM)
MIC (S. flexneri SDINT; [4]): 128 µg/mL (≈ 259 µM)
CC50 at 24 h (MTT cytotoxicity assay [3]): 129.1 ± 1.2 µg/mL (≈ 262 µM)
Selectivity Index V. cholerae PC2 (V. cholerae PC2; SI = LC50 on Vero cells / MIC): 0.50
MBC/MIC (V. cholerae PC2; V. cholerae PC2): 1
MBC (V. cholerae PC2; [5]): 256 µg/mL (≈ 519 µM)
MIC (V. cholerae PC2; [6]): 256 µg/mL (≈ 519 µM)
Selectivity Index V. cholerae CO6 (V. cholerae CO6): 0.25
MBC/MIC (V. cholerae CO6): 1
MBC (V. cholerae CO6): 512 µg/mL (≈ 1040 µM)
MIC (V. cholerae CO6): 512 µg/mL (≈ 1040 µM)
MBC (V. cholerae SG24): > 512 µg/mL
MIC (V. cholerae SG24): > 512 µg/mL
Selectivity Index V. cholerae NB2 (V. cholerae NB2): 0.25
MBC/MIC (V. cholerae NB2): 1
MBC (V. cholerae NB2; Vibrio cholerae): 512 µg/mL (≈ 1040 µM)
MIC (V. cholerae NB2; Vibrio cholerae, read-out: MIC): 512 µg/mL (≈ 1040 µM)
MBC/MIC (S. aureus ATCC 25923): 1
Selectivity Index S. aureus ATCC 25923 (S. aureus ATCC 25923): 0.50
MBC (S. aureus ATCC 25923): 256 µg/mL (≈ 519 µM)
MIC (S. aureus ATCC 25923): 256 µg/mL (≈ 519 µM)
